Literature values as cited in patent US9687472B2, “Use of antioxidants as an adjuvant to immune stimulators to augment tumor immunity and prevent toxicity associated with oxidative stress” (BATU BIOLOGICS, priority 2014, dated 2017).

Key:
human endothelial cells = details: hypoxic (24 hours; 1% O(2))/reoxygenated (3 hours; 21% O(2)) cells
endothelial cell = details: in vitro
[1] = 10 mg/kg intravenously before induction of sepsis
[2] = tested on: circulating apoptotic endothelial cells; details: 2.5 g intravenously and 3 days of 4 g per day oral
[3] = tested on: human umbilical vein endothelial (HUVEC) cells; details: in response to TNF-alpha, in vitro
[4] = i.v. 66 mg/kg/hr for 24 hours
complement system = details: patients

O=C[C@H](O)[C@H](O)[C@@H](O)[C@@H](O)CO [L-mannose]
complement activation (iC3b deposition) (human endothelial cells): not

O=C1O[C@H]([C@@H](O)CO)C(O)=C1O [AA, ascorbic acid]
TNF-alpha induced endothelial cell apoptosis (endothelial cell): reduction | survival [1]: 50% | circulating apoptotic endothelial cells [2]: reduction | endothelial cell expression of ICAM-1 [3]: reduce | 24 hr total fluid infusion volume [4]: statistically significant reductions | fluid retention (indicative of vascular leakage) [4]: statistically significant reductions | need for mechanical ventilation [4]: 12.1 ± 8.8 days

CC(=O)N[C@H]1C(O)O[C@H](CO)[C@@H](O)[C@@H]1O (stereo partly drawn) [N-acetyl-D-glucosamine]
complement activation (iC3b deposition) (human endothelial cells): blocked activation

O=C[C@@H](O)[C@@H](O)[C@H](O)[C@H](O)CO [D-mannose]
complement activation (iC3b deposition) (human endothelial cells): blocked activation

B1: C1 esterase inhibitor: complement inhibitor (protein, UniProt P05155 23-500, looked up)
Plasma protease C1 inhibitor: NPNATSSSSQDPESLQDRGEGKVATTVISKMLFVEPILEVSSLPTTNSTTNSATKITANTTDEPTTQPTTEPTTQPTIQPTQPTTQLPTDSPTQPTTGSFCPGPVTLCSDLESHSTEAVLGDALVDFSLKLYHAFSAMKKVETNMAFSPFSIASLLTQVLLGAGENTKTNLESILSYPKDFTCVHQALKGFTTKGVTSVSQIFHSPDLAIRDTFVNASRTLYSSSPRVLSNNSDANLELINTWVAKNTNNKISRLLDSLPSDTRLVLLNAIYLSAKWKTTFDPKKTRMEPFHFKNSVIKVPMMNSKKYPVAHFIDQTLKAKVGQLQLSHNLSLVILVPQNLKHRLEDMEQALSPSVFKAIMEKLEMSKFQPTLLTLPRIKVTTSQDMLSIMEKLEFFDFSYDLNLCGLTEDPDLQVSAMQHQTVLELTETGVEAAAASAISVARTLLVFEVQQPFLFVLWDQQHKFPVFMGRVYDPRA
IL-2 induced hypotension and complement activation (complement system): capable of reducing
